Measurements from patent publication EP1980248B1, “Composition for treating cancer cells and synthetic method for the same” (Kaohsiung Medical University, priority 2007, dated 2008).
Converted amounts (≈) assume the structure as drawn.

What was measured:
Assay in all cases: Cytotoxicity assay, MTT colorimetric method
Type in all cases: cell-based
[1] = system: A549; conditions: A549 human lung cancer cell line; 72 hrs treatment; cell viability by MTT
Experimental: (§1) Human liver (HepG2 and Hep3B), breast (MCF-7 and MDA-MB-231), and lung (A549) cancer cell lines were propagated in RPMI-1640 medium supplement with 10% (v/v) FBS, 100 U/mL penicillin and 100 µg/mL streptomycin at 37°C in a humidified atmosphere of 5% CO2 and 95% air. The culturing medium is changed every three days. Upon confluency, cells were subcultured to confluency, and used for experiments. The experimental period is determined according to the aim of experiment.
(§2) Cytotoxicity is measured by the MTT colorimetric method. Cells were seeded at densities of 5,000 - 10,000 cells/well in 96-well tissue culture plates. On day two, cells are treated with test compounds for another 72 hrs. After drug treatment, attached cells were incubated with MTT (0.5 mg/mL) for 1 hr and subsequently solubilized in DMSO. The absorbency at 550 nm is then measured using a microplate reader. The IC50 is the concentration of agent that reduces the cell viability by 50% under the experimental conditions, and the cytotoxic compound, Doxorubicin, is used as a positive control.

[2] = system: Hep3B; conditions: Hep3B human liver cancer cell line; 72 hrs treatment; cell viability by MTT
Experimental: as §1, §2

[3] = system: HepG2; conditions: HepG2 human liver cancer cell line; 72 hrs treatment; cell viability by MTT
Experimental: as §1, §2

[4] = system: MCF-7; conditions: MCF-7 human breast cancer cell line, 72 hrs treatment, cell viability by MTT; for IC50: MCF7
Experimental: as §1, §2

[5] = system: MDA-MB-231; conditions: MDA-MB-231 human breast cancer cell line; 72 hrs treatment; cell viability by MTT
Experimental: as §1, §2

COC1(c2cc(=O)c3c(ccc4ccccc43)o2)C=CC(=O)C=C1 [compound 15b]
IC50 [1]: 8.2 µg/mL (≈ 25.8 µM)
IC50 [2]: 0.35 µg/mL (≈ 1.1 µM)
IC50 [3]: 3.16 µg/mL (≈ 9.93 µM)
IC50 [4]: 0.86 µg/mL (≈ 2.7 µM)
IC50 [5]: 0.37 µg/mL (≈ 1.16 µM)

O=C1C=CC(O)(c2cc(=O)c3c(ccc4ccccc43)o2)C=C1 [compound 15a, 3-(1-hydroxy-4-oxocyclohexa-2,5-dienyl)-1H-benzo[f]chromen-1-one]
IC50 [1]: 0.55 µg/mL (≈ 1.81 µM)
IC50 [2]: 0.09 µg/mL (≈ 0.296 µM)
IC50 [3]: 1.08 µg/mL (≈ 3.55 µM)
IC50 [4]: 0.2 µg/mL (≈ 0.657 µM)
IC50 [5]: 0.12 µg/mL (≈ 0.394 µM)

COc1cccc2c1C(=O)c1c(O)c3c(c(O)c1C2=O)C[C@@](O)(C(=O)CO)C[C@@H]3O[C@H]1C[C@H](N)[C@H](O)[C@H](C)O1 [Doxorubicin, reference compound]
IC50 [1]: 0.21 µg/mL (≈ 0.386 µM)
IC50 [2]: 0.36 µg/mL (≈ 0.662 µM)
IC50 [3]: 0.29 µg/mL (≈ 0.534 µM)
IC50 [4]: 0.43 µg/mL (≈ 0.791 µM)
IC50 [5]: 0.08 µg/mL (≈ 0.147 µM)

COC1(c2cc(=O)c3ccccc3o2)C=CC(=O)C=C1 [compound 8b, 1'-methoxyprotoflavonoen]
IC50 [1]: > 20 µg/mL
IC50 [2]: 1.45 µg/mL (≈ 5.41 µM)
IC50 [3]: 10.9 µg/mL (≈ 40.8 µM)
IC50 [4]: 2.14 µg/mL (≈ 7.98 µM)
IC50 [5]: 1.47 µg/mL (≈ 5.48 µM)

COC1(c2cc(=O)c3c(C)cccc3o2)C=CC(=O)C=C1 [10b, 1'-methoxy-5-methylprotoflavonone]
IC50 A549 [1]: 16.36 µg/mL (≈ 58 µM)
IC50 Hep3B [2]: 0.66 µg/mL (≈ 2.34 µM)
IC50 HepG2 [3]: 7.64 µg/mL (≈ 27.1 µM)
IC50 MCF-7 [4]: 1.55 µg/mL (≈ 5.49 µM)
IC50 MDA-MB-231 [5]: 0.54 µg/mL (≈ 1.91 µM)

O=C1C=CC(O)(c2cc(=O)c3c(O)cc(O)cc3o2)C=C1 [protoapigenone]
IC50 [1]: 3.96 µg/mL (≈ 13.8 µM)
IC50 [2]: 0.65 µg/mL (≈ 2.27 µM)
IC50 [3]: 2.32 µg/mL (≈ 8.11 µM)
IC50 [4]: 1.07 µg/mL (≈ 3.74 µM)
IC50 [5]: 0.41 µg/mL (≈ 1.43 µM)

O=C1C=CC(O)(c2cc(=O)c3ccccc3o2)C=C1 [compound 8a, 2-(1-hydroxy-4-oxocyclohexa-2,5-dienyl)-4H-chromen-4-one]
IC50 [1]: 1.33 µg/mL (≈ 5.23 µM)
IC50 [2]: 0.32 µg/mL (≈ 1.26 µM)
IC50 [3]: 1.71 µg/mL (≈ 6.73 µM)
IC50 [4]: 0.44 µg/mL (≈ 1.73 µM)
IC50 [5]: 0.18 µg/mL (≈ 0.708 µM)

COc1cc(O)c2c(=O)cc(C3(O)C=CC(=O)C=C3)oc2c1 [compound 18a, 5-hydroxy-2-(1-hydroxy-4-oxocyclohexa-2,5-dienyl)-7-methoxy-4H-chromen-4-one]
IC50 [1]: 0.93 µg/mL (≈ 3.1 µM)
IC50 [2]: 0.2 µg/mL (≈ 0.666 µM)
IC50 [3]: 0.17 µg/mL (≈ 0.566 µM)
IC50 [4]: 0.51 µg/mL (≈ 1.7 µM)
IC50 [5]: 0.13 µg/mL (≈ 0.433 µM)

O=C1C=CC(O)(c2cc(=O)c3c(O)cccc3o2)C=C1 [compound 10a, 2-(1-hydroxy-4-oxocyclohexa-2,5-dienyl)-5-hydroxy-4H-chromen-4-one]
IC50 [1]: 1.37 µg/mL (≈ 5.07 µM)
IC50 [2]: 0.35 µg/mL (≈ 1.3 µM)
IC50 [3]: 1.34 µg/mL (≈ 4.96 µM)
IC50 [4]: 0.93 µg/mL (≈ 3.44 µM)
IC50 [5]: 0.18 µg/mL (≈ 0.666 µM)
